# Columns and labels:
# [1] = biological target: T1, EGFR (L858R T790 M C797S) (Homo sapiens, UniProt P00533, C797S/L858R/T790M); experiment: Biochemical EGFR inhibition assay (Caliper mobility shift), LRTMCS mutant at 1 mM ATP; conditions: read-out: LRTMCS (PH) IC50 (nM) @ 1 mM ATP (Num)
# T1 construct: purchased SignalChem E10-122VG
# Description: Inhibitory effects of the compounds of the disclosure were measured in biochemical assays that measure the phosphorylation activity of EGFR enzyme phosphorylates 2.5 micromolar 5-FAM-[…]-CONH2 peptide substrate (FL-Peptide 22, PerkinElmer, 760366) in the presence of adenosine-5′-triphosphate (ATP) and varying concentrations of the test compound in 100 mM 2-[4-(2-hydroxyethyl)piperazin-1-yl]ethanesulfonic acid (HEPES), pH 7.5, 10 mM MgCl2, 0.015% Brij-35, 1 mM dithiothreitol (DTT), 1.0% dimethylsulfoxide (DMSO). Assays were performed at 1.0 mM ATP or at ATP Km of the EGFR enzymes. Reactions proceeded until between 10% to 20% total peptides were phosphorylated at room temperature (25° C.) and were terminated with 35 mM 2,2′,2″,2′″-(ethane-1,2-diyldinitrilo)tetraacetic acid (EDTA). Product was detected using the Caliper mobility shift detection method where the phosphorylated peptide (product) and substrate were electrophoretically separated and measured. Percent activity was plotted against log concentration of compound and points to generate an apparent IC50. The following enzyme forms of EGFR were examples that were used in these assays: • EGFR WT (SignalChem, E10-112G) • EGFR (L858R T790 M C797S) (SignalChem, E10-122VG) • EGFR (d746-750) T790 M C797S (SignalChem, E10-122UG) • EGFR L858R (SignalChem, E10-122BG) • EGFR (d746-750) (SignalChem, E10-122JG)
# [2] = test system: phosphorylation of EGFR in NCI-H1975 cell line that harbors the EGFR L858R T790 M mutations; experiment: NCI-H1975 pEGFR AlphaLISA assay; assay type: cell-based; conditions: Homo sapiens, NCI-H1975, NCI-H1975 cells, p-EGFR (Tyr1068), 4-5 hours incubation; read-out: Ext pEGFR H1975 GMean IC50 (nM) Protocol: @ Pharmaron AlphaLISA (Num)
# Description: Inhibitory effects of the compounds of the disclosure were evaluated in cellular assays that measure level of intracellular phosphorylation of EGFR in NCI-H1975 cell line that harbors the EGFR L858R T790 M mutations (ATCC, CRL-5908) using AlphaLISA sureFire ultra p-EGFR (Tyr1068) assay kit (PerkinElmer, ALSU-PEGFR-A50K). The NCI-H1975 cells were seeded at 12.5K/well in 22 μL into 384 well opti plate (PerkinElmer, 6007299) and adhering overnight at 37° C./5% CO2. On the next day, the test compounds and DMSO control were added into H1975 cell plate followed by incubation at 37° C./5% CO2 for 4-5 hours. The cells were then spin down in the 384-well plate and lysed with 10 μL of 1× AlphaLISA lysis buffer followed by shaking at 600 rpm for 10 minutes at room temperature. After that, 5 μL of an acceptor bead mix was added to each well followed by incubation at room temperature for 1.5-2 h in dark. Then 5 μL of a donor bead mix was added to each well followed by overnight incubation at room temperature in dark. On the next day, the plate was read at a compatible plate reader to obtain pEGFR signal. Percent of pEGFR inhibition was plotted against log concentration of compounds to generate IC50 values.
# T1 sequence (P00533 25-1210 T790M/C797S/L858R): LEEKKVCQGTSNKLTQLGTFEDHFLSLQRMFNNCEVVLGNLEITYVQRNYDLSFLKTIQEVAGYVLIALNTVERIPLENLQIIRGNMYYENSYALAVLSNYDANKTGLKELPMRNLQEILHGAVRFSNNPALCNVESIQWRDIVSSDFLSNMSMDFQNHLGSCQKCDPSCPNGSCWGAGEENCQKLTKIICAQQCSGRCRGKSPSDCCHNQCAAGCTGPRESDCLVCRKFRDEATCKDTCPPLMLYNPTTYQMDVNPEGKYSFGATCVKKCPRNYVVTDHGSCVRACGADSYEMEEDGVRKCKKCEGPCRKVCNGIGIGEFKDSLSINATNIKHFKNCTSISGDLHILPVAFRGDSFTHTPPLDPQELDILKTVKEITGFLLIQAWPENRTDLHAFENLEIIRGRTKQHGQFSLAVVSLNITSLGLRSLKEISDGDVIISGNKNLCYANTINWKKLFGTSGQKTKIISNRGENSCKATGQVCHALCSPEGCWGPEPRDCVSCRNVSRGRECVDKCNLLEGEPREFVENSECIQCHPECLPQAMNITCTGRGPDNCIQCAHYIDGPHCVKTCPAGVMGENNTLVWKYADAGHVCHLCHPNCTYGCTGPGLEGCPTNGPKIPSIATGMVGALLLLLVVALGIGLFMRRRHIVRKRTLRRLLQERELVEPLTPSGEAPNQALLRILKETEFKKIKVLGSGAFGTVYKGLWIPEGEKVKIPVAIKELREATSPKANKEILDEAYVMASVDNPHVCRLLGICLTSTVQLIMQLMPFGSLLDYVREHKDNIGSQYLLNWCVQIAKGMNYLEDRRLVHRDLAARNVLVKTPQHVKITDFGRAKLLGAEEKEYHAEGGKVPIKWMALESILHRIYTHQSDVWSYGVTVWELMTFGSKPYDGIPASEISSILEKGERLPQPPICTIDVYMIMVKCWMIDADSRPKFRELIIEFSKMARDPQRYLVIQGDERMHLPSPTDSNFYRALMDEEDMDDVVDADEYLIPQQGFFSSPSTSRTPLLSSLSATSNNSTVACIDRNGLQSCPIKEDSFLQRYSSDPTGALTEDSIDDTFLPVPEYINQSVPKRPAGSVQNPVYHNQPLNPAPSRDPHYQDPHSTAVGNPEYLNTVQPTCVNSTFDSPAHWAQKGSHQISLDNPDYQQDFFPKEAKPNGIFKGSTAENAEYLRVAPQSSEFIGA
IC50 [1] [nM],IC50 [2] [nM],Compound
30 to 100,> 50,"CC(C)c1cnc(N2CC(CS(C)(=O)=O)C2)c2cnc(Nc3ccnc(C4CCC4)n3)cc12 [Example 5, N-(2-cyclobutylpyrimidin-4-yl)-5-isopropyl-8-(3-((methylsulfonyl)methyl)azetidin-1-yl)-2,7-naphthyridin-3-amine]"
30 to 100,> 50,"CC(C)c1cnc(N2CC(CS(C)(=O)=O)C2)c2cnc(Nc3ccnc([C@H]4C[C@@H](O)C4)n3)cc12 [Example 6, (1s,3s)-3-(4-((5-isopropyl-8-(3-((methylsulfonyl)methyl)azetidin-1-yl)-2,7-naphthyridin-3-yl)amino)pyrimidin-2-yl)cyclobutan-1-ol]"
15 to 20,> 50,"CC(C)c1cnc(N2CC(CS(C)(=O)=O)C2)c2cnc(Nc3ccnc([C@H]4C[C@H](O)C4)n3)cc12 [Example 7, (1r,3r)-3-(4-((5-isopropyl-8-(3-((methylsulfonyl)methyl)azetidin-1-yl)-2,7-naphthyridin-3-yl)amino)pyrimidin-2-yl)cyclobutan-1-ol]"
≤ 15,< 10,"Cc1ncc(-c2nccc(Nc3cc4c(C(C)C)ncc(N5CC(CS(C)(=O)=O)C5)c4cn3)n2)s1 [Example 8, 5-isopropyl-8-(3-((methylsulfonyl)methyl)azetidin-1-yl)-N-(2-(2-methylthiazol-5-yl)pyrimidin-4-yl)-2,6-naphthyridin-3-amine]"
≤ 15,30 to 50,"CC(C)c1ncc(N2CC(CS(C)(=O)=O)C2)c2cnc(Nc3ccnc(-c4cnn(C)c4)n3)cc12 [Example 9, 5-isopropyl-N-(2-(1-methyl-1H-pyrazol-4-yl)pyrimidin-4-yl)-8-(3-((methylsulfonyl)methyl)azetidin-1-yl)-2,6-naphthyridin-3-amine]"
≤ 15,10 to 20,"CC(C)c1ccc(N2CC(CS(C)(=O)=O)C2)c2cnc(Nc3ccnc(-c4cnn(C)c4)n3)cc12 [Example 10, 5-isopropyl-N-(2-(1-methyl-1H-pyrazol-4-yl)pyrimidin-4-yl)-8-(3-((methylsulfonyl)methyl)azetidin-1-yl)isoquinolin-3-amine]"
30 to 100,> 50,"COc1ccc(-c2nccc(Nc3cc4c(C(C)C)ccc(N5CC(CS(C)(=O)=O)C5)c4cn3)n2)cn1 [Example 11, 5-isopropyl-N-(2-(6-methoxypyridin-3-yl)pyrimidin-4-yl)-8-(3-((methylsulfonyl)methyl)azetidin-1-yl)isoquinolin-3-amine]"
≤ 15,10 to 20,"CCS(=O)(=O)CC1CN(c2ccc(C(C)C)c3cc(Nc4ccnc(-c5cnn(C)c5)n4)ncc23)C1 [Example 12, 8-(3-((ethylsulfonyl)methyl)azetidin-1-yl)-5-isopropyl-N-(2-(1-methyl-1H-pyrazol-4-yl)pyrimidin-4-yl)isoquinolin-3-amine]"
≤ 15,10 to 20,"CC(C)c1ccc(N2CC(CS(C)(=O)=O)C2)c2cnc(Nc3ccnc(-c4cccnc4)n3)cc12 [Example 13, 5-isopropyl-8-(3-((methylsulfonyl)methyl)azetidin-1-yl)-N-(2-(pyridin-3-yl)pyrimidin-4-yl)isoquinolin-3-amine]"
30 to 100,> 50,"CC(C)c1ccc(N2CC(CS(C)(=O)=O)C2)c2cnc(Nc3ccnc(-c4cncc(Cl)c4)n3)cc12 [Example 14, N-(2-(5-chloropyridin-3-yl)pyrimidin-4-yl)-5-isopropyl-8-(3-((methylsulfonyl)methyl)azetidin-1-yl)isoquinolin-3-amine]"
15 to 20,30 to 50,"CC(C)c1ccc(N2CC(CS(C)(=O)=O)C2)c2cnc(Nc3ccnc(C4=CCC5(CC4)OCCO5)n3)cc12 [Example 15, N-(2-(1,4-dioxaspiro[4.5]dec-7-en-8-yl)pyrimidin-4-yl)-5-isopropyl-8-(3-((methylsulfonyl)methyl)azetidin-1-yl)isoquinolin-3-amine]"
30 to 100,> 50,"CC(C)c1ccc(N2CC(CS(C)(=O)=O)C2)c2cnc(Nc3ccnc(C4CC(F)C4)n3)cc12 (stereo not drawn) [Example 26, N′-(2-(3-fluorocyclobutyl)pyrimidin-4-yl)-5-isopropyl-8-(3-((methylsulfonyl)methyl)azetidin-1-yl)isoquinolin-3-amine]"

# Source: patent publication US20240300946A1, “EGFR INHIBITORS” (Blueprint Medicines Corporation, priority 2021, published 2024)
